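48-hour exposure; five concentrations; linearly interpolated endpoints. TGI: total growth inhibition.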
Key:
Assay in all cases: growth of human tumour cells (NCI), 48 h
[1] = test system: 786-0 renal
[2] = test system: A498 renal
[3] = test system: A549 NSCLC
[4] = test system: ACHN renal
[5] = test system: CAKI-1 renal
[6] = test system: CCRF-CEM leukemia
[7] = test system: COLO 205 colon
[8] = test system: DLD-1 colon
[9] = test system: DMS 114 small cell lung
[10] = test system: DMS 273 small cell lung
[11] = test system: EKVX NSCLC
[12] = test system: HCC-2998 colon
[13] = test system: HCT-116 colon
[14] = test system: HCT-15 colon
[15] = test system: HL-60(TB) leukemia
[16] = test system: HOP-18 NSCLC
[17] = test system: HOP-62 NSCLC
[18] = test system: HOP-92 NSCLC
[19] = test system: HT29 colon
[20] = test system: IGROV1 ovarian
[21] = test system: K-562 leukemia
[22] = test system: KM12 colon
[23] = test system: KM20L2 colon
[24] = test system: LOX IMVI melanoma
[25] = test system: LXFL 529 NSCLC
[26] = test system: M14 melanoma
[27] = test system: M19-MEL melanoma
[28] = test system: MALME-3M melanoma
[29] = test system: MOLT-4 leukemia
[30] = test system: NCI-H226 lung
[31] = test system: NCI-H23 lung
[32] = test system: NCI-H460 lung
[33] = test system: NCI-H522 lung
[34] = test system: OVCAR-3 ovarian
[35] = test system: OVCAR-4 ovarian
[36] = test system: OVCAR-5 ovarian
[37] = test system: OVCAR-8 ovarian
[38] = test system: RPMI-8226 leukemia
[39] = test system: RXF 393 renal
[40] = test system: RXF-631 renal
[41] = test system: SF-268 CNS
[42] = test system: SF-295 CNS
[43] = test system: SF-539 CNS
[44] = test system: SK-MEL-5 melanoma
[45] = test system: SK-OV-3 ovarian
[46] = test system: SN12C renal
[47] = test system: SNB-19 CNS
[48] = test system: SNB-75 CNS
[49] = test system: SNB-78 CNS
[50] = test system: SR leukemia
[51] = test system: SW-620 colon
[52] = test system: TK-10 renal
[53] = test system: U251 CNS
[54] = test system: UACC-257 melanoma
[55] = test system: UACC-62 melanoma
[56] = test system: UO-31 renal
[57] = test system: XF 498 CNS

Measured: TGI

CC(=O)OCC1OC(NC(=S)N/N=C2\CC(c3ccccc3)Oc3ccccc32)C(OC(C)=O)C(OC(C)=O)C1OC(C)=O (configuration not stated)
> 100 µM: all assays above

Reference: PubChem BioAssay (NCI)
